Measured values reported in US11820822B2, “Methods for sensitizing cancer cells to T cell-mediated killing by modulating molecular pathways” (DANA-FARBER CANCER INSTITUTE, INC., priority 2017, dated 2023).

Columns and labels:
[1] = test system: B16F10-Cas9 cells co-cultured with Pmel-1 T cells; assay: Genome-scale CRISPR-Cas9 screen, selection with Pmel-1 T cells; format: cell-based, mouse; details: Table 3; B16F10-Cas9 cells pre-treated with IFNγ, co-cultured with Pmel-1 T cells 1:1 for three days; negative = depleted, positive = enriched
[2] = test system: B16F10-Cas9 cells pulsed with SIINFEKL peptide, co-cultured with OT-I T cells; assay: Genome-scale CRISPR-Cas9 screen, selection with OT-I T cells; format: cell-based, mouse; details: Table 3; B16F10-Cas9 cells pulsed with SIINFEKL, co-cultured with OT-I T cells 1:1 for one day; negative = depleted, positive = enriched

| Sequence | Pmel+ (sgRNA Log(2) fold change, Pmel-1 selection versus control T cells) [1] | OT1 (sgRNA Log(2) fold change, OT-I selection versus control T cells) [2] |
| --- | --- | --- |
| GAATCTGAATGGAGGAACCT (chemistry not fully specified) | 0.00 | -2.21 |
| ACCTCCGAATGATCAATGGG (chemistry not fully specified) | -0.84 | -2.52 |
| GGACAAGACATGGAGACAGA (chemistry not fully specified) | 0.83 | -2.11 |
| TTCAGATTCAGACATCAGAT (chemistry not fully specified) | 0.00 | -2.07 |
| CACCGGATCGTCCAATTCCG (chemistry not fully specified) | -0.88 | -2.82 |
| TGCACAGCATACACTAGTGA (chemistry not fully specified) | -1.65 | -2.96 |
| ACTTCAAAGTCCATGGCACA (chemistry not fully specified) | -0.63 | -2.45 |
| CCGCTCGAAGAAGCACTCCT (chemistry not fully specified) | 0.95 | -3.04 |
| GAAAAGCAAGCGTAATCTCC (chemistry not fully specified) | 8.13 | 2.70 |
| CGGATGGCCACACGTAACAG (chemistry not fully specified) | 3.00 | 0.20 |
| GCAGGGGTCTCCTTATGTCG (chemistry not fully specified) | -1.13 | -2.67 |
| GCCCTTTACTTTCAGTACGG (chemistry not fully specified) | -0.93 | -2.52 |
| ACTCACTCTGGATAGCATAC (chemistry not fully specified) | 3.80 | 5.27 |
| GAATGATATTATAGCGACGA (chemistry not fully specified) | 0.59 | -2.20 |
| CTTCCTGGACATCGACGTGG (chemistry not fully specified) | 0.56 | -2.12 |
| TCTGTTGAAAGAGCGCCAAA (chemistry not fully specified) | -3.36 | -0.71 |
| CTGCACCAATGTTGGTCACG (chemistry not fully specified) | 2.82 | 0.32 |
| GCCAGCTTTCTCGCACGTGG (chemistry not fully specified) | -2.01 | -0.61 |
| CGATGCCATTCGAATGACAG (chemistry not fully specified) | 8.40 | 1.57 |
| TCAGCAACTGAGAACTCACT (chemistry not fully specified) | -2.37 | -1.37 |
| GACAAGATGACAAACCTGGT (chemistry not fully specified) | 3.45 | 1.65 |
| AAAACGGTCTCAAGCCAATG (chemistry not fully specified) | 1.05 | -3.05 |
| GAATACGAAGCAGAAAAGGT (chemistry not fully specified) | 0.00 | -2.50 |
| GAAAAATCTGTACACCACCG (chemistry not fully specified) | -0.30 | -2.64 |
| AGAGATCTGCGCCATTTAAG (chemistry not fully specified) | -0.91 | -3.28 |
| GTGAGCCTGAGGAACCTGCT (chemistry not fully specified) | 3.08 | 1.01 |

| Sequence | Pmel+ (sgRNA Log(2) fold change, Pmel-1 selection versus control T cells) [1] | OT1 (sgRNA Log(2) fold change, OT-I selection versus control T cells) [2] |
| --- | --- | --- |
| ACAGCCTCCCAATATCTCAG (chemistry not fully specified) | -0.54 | -3.56 |
| CAGCATTGACAATACGACCA (chemistry not fully specified) | 0.62 | -3.84 |
| TGGAACCTCCTGATCCGCTG (chemistry not fully specified) | 0.12 | -4.60 |
| ATAGAAATCTGACACTGCCG (chemistry not fully specified) | 0.00 | -2.12 |
| GGTCATACTTAAAAGCACAA (chemistry not fully specified) | -0.81 | -2.07 |
| TGAATAAATCCATCAGACAG (chemistry not fully specified) | 9.92 | 2.46 |
| AGTTTGGAGCCCAGTAGGCA (chemistry not fully specified) | -2.19 | -2.77 |
| TTCAAAGCAAGGCTCTACTG (chemistry not fully specified) | -0.93 | -2.28 |
| CGGGTATTACAGACTAACTG (chemistry not fully specified) | 3.20 | 2.71 |
| TGTTTGCAGTTAGCAAAACG (chemistry not fully specified) | 0.00 | -2.49 |
| TGTAATGTAGGTCTCCCAGG (chemistry not fully specified) | -1.35 | -3.77 |
| TCCGAACCGAATCATCACTG (chemistry not fully specified) | 10.23 | 3.59 |
| CTTGTGACGGTAATTCTGAA (chemistry not fully specified) | 0.00 | -2.48 |
| CCGAGACCCCAATAGTGCAA (chemistry not fully specified) | 2.89 | 0.71 |
| AAACAAGAGCACACTCCCCG (chemistry not fully specified) | 1.49 | -2.06 |
| CGGCCCGCCGATGTCGTGTG (chemistry not fully specified) | -0.25 | -3.19 |
| TTACCCCCTACTACACTGGA (chemistry not fully specified) | -2.24 | -2.56 |
| GCGTCGTCGACTTATGACTT (chemistry not fully specified) | -0.05 | -3.36 |
| TTACACGACCCGAATAGCGA (chemistry not fully specified) | 3.22 | -2.14 |
| TTGTGAGGCAAACTGAACGA (chemistry not fully specified) | -0.86 | -2.11 |
| CCCGGGAATAGCGTACAGCT (chemistry not fully specified) | 0.70 | -2.71 |
| CAGGACTTCTGGTCTATCCG (chemistry not fully specified) | -1.47 | -3.14 |
| GCCAACATCTGCTTACTCGC (chemistry not fully specified) | -1.97 | -2.55 |
| ACTCGTACAGCTCCTGTGGT (chemistry not fully specified) | 2.62 | 0.67 |
| CCTTTAGTAGCAGAAGCCGC (chemistry not fully specified) | 0.73 | -2.95 |
| ATGGGATTGATCGTTACTGG (chemistry not fully specified) | 0.00 | -2.32 |
